Source: publication PMC11345332, “Expression, Purification and Biophysical Characterisation of Klebsiella Pneumoniae Protein Adenylyltransferase: A Systematic Integration of Empirical and Computational Modelling Approaches” (The Protein Journal, 2024)

How the values were obtained:
[1] = target: T1, KpPrAT (Klebsiella pneumoniae protein adenylyltransferase) (Klebsiella variicola, UniProt B5XQE2); test: biochemical; design: gene ydiU
Description: isothermal titration calorimetry on KpPrAT (Klebsiella pneumoniae protein adenylyltransferase)

[2] = target: T1, KpPrAT (Klebsiella pneumoniae protein adenylyltransferase); test: fluorescence emission blue shift and intensity increase; type: binding; design: gene ydiU; synthetic gene in pET-11a (NdeI/BamHI), N-terminal His6 tag kept (no cleavage described), E. coli T7 cells, Ni-IMAC, about 54 kDa; conditions: 10 µM mant-ATP, 2 µM protein, 20 mM sodium phosphate pH 7.4, 20 °C, with or without 5 mM MgCl2; labelled compound

T1 sequence (B5XQE2 whole entry): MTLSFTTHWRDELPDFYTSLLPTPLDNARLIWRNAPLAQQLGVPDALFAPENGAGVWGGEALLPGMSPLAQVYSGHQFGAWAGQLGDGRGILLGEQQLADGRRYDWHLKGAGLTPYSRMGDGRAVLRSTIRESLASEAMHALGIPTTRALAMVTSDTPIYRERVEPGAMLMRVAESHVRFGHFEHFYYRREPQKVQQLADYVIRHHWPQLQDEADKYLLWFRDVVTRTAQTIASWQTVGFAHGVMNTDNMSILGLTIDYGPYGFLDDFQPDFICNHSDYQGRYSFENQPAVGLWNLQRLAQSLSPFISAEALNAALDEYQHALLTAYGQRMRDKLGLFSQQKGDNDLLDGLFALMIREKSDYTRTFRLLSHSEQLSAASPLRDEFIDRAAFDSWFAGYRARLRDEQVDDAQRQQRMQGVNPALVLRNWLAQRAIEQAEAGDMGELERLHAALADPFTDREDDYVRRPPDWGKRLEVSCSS

Structure (SMILES)	Kd [1] [µM]	fluorescence emission blue shift and intensity increase [2]
Nc1ncnc2c1ncn2[C@@H]1O[C@H](COP(=O)(O)OP(=O)(O)OP(=O)(O)O)[C@@H](O)[C@H]1O [ATP]	2.93	–
CNc1ccccc1C(=O)O[C@H]1[C@@H](O)[C@H](n2cnc3c(N)ncnc32)O[C@@H]1COP(=O)(O)OP(=O)(O)OP(=O)(O)O [mant-ATP, 2ʹ/3’-O-(N-Methylanthraniloyl) adenosine 5ʹ-triphosphate]	–	An increase in fluorescence intensity and blue shift occurs when KpPrAT binds to mant-ATP
